Key:
[1] = test system: PBMCs of healthy HCMV-seropositive donors; assay: IFNγ ELISpot after 12 day stimulation (memory T-cell response); format: cell-based, human; details: for % Positive donors (after 12 days of stimulation): IFNγ ELISpot, HLA-matched seropositive donors; for Positive donors as tested: positive / tested HLA-matched seropositive donors, positive: >10 spots/well and at least 3-fold negative control
Source text: (§1) PHA was used as positive control.

[2] = test system: PBMCs of healthy HCMV-seropositive donors; assay: ex vivo IFNγ ELISpot without prestimulation; format: cell-based, human; details: IFNγ ELISpot ex vivo, donors previously tested positive
Source text: as §1

| Sequence | % Positive donors (after 12 days of stimulation) [1] [%] | Positive donors as tested [1] | % Positive donors (ex vivo) [2] [%] |
| --- | --- | --- | --- |
| GLLAHIPALGV (listed as Human cytomegalovirus) [SEQ ID NO: 8] | 27.3 | 6/22 | 0.0 |
| IPDYRSVSL (listed as Human cytomegalovirus) [SEQ ID NO: 34] | 22.2 | 4/18 |  |
| IPHNWFLQV (listed as Human cytomegalovirus) [SEQ ID NO: 92] | 33.3 | 5/15 |  |
| IPMTFVDRDSL (listed as Human cytomegalovirus) [SEQ ID NO: 30] | 35.7 | 5/14 |  |
| IPPPQIPFV (listed as Human cytomegalovirus) [SEQ ID NO: 90] | 40.0 | 6/15 |  |
| IPVERQAL (listed as Human cytomegalovirus) [SEQ ID NO: 36] | 16.7 | 2/12 |  |
| ISENGNLQVTY (listed as Human cytomegalovirus) [SEQ ID NO: 63] | 15.0 | 3/20 |  |
| KLGGALQAK (listed as Human cytomegalovirus) [SEQ ID NO: 70] | 40.0 | 6/15 |  |
| LENGVTHRF (listed as Human cytomegalovirus) [SEQ ID NO: 49] | 7.1 | 1/14 |  |
| LLDELGAVFGY (listed as Human cytomegalovirus) [SEQ ID NO: 62] | 15.4 | 2/13 |  |
| LPNDHHYAL (listed as Human cytomegalovirus) [SEQ ID NO: 38] | 5.9 | 1/17 |  |
| LPYLSAERTV (listed as Human cytomegalovirus) [SEQ ID NO: 97] | 6.7 | 1/15 |  |
| LYVGQFLAY (listed as Human cytomegalovirus) [SEQ ID NO: 21] | 25.0 | 3/12 |  |
| MLRLLFTL (listed as Human cytomegalovirus) [SEQ ID NO: 86] | 7.1 | 1/14 |  |
| MPVTHPPEV (listed as Human cytomegalovirus) [SEQ ID NO: 95] | 13.3 | 2/15 |  |
| NYNEQHYRY (listed as Human cytomegalovirus) [SEQ ID NO: 20] |  | 5/13 |  |
| QLRSVIRAL (listed as Human cytomegalovirus) [SEQ ID NO: 85] | 14.3 | 2/14 |  |
| RENAGVALY (listed as Human cytomegalovirus) [SEQ ID NO: 45] | 19.1 | 4/21 |  |
| REQAAIPQIY (listed as Human cytomegalovirus) [SEQ ID NO: 50] | 6.3 | 1/16 |  |
| RLADVLIKR (listed as Human cytomegalovirus) [SEQ ID NO: 77] | 15.4 | 2/13 |  |
| RLFDLPVYC (listed as Human cytomegalovirus) [SEQ ID NO: 6] | 41.7 | 5/12 |  |
| RLQPNVPLV (listed as Human cytomegalovirus) [SEQ ID NO: 7] | 33.3 | 6/18 | 0.0 |

| Sequence | % Positive donors (after 12 days of stimulation) [1] [%] | Positive donors as tested [1] | % Positive donors (ex vivo) [2] [%] |
| --- | --- | --- | --- |
| RSVRLPYMYK (listed as Human cytomegalovirus) [SEQ ID NO: 78] | 13.3 | 2/15 |  |
| RTFAGTLSR (listed as Human cytomegalovirus) [SEQ ID NO: 76] | 21.4 | 3/14 |  |
| RVDPNLRNR (listed as Human cytomegalovirus) [SEQ ID NO: 74] | 33.3 | 5/15 |  |
| RVSQPSLIL (listed as Human cytomegalovirus) [SEQ ID NO: 32] | 26.7 | 4/15 |  |
| RVYAYDTREK (listed as Human cytomegalovirus) [SEQ ID NO: 72] | 36.4 | 4/11 |  |
| SESLVAKRY (listed as Human cytomegalovirus) [SEQ ID NO: 48] | 10.0 | 1/10 |  |
| SFFPKLQGNY (listed as Human cytomegalovirus) [SEQ ID NO: 22] | 22.2 | 2/9 |  |
| SLYEANPEL (listed as Human cytomegalovirus) [SEQ ID NO: 10] | 23.5 | 4/17 |  |
| SPHPPTSVFL (listed as Human cytomegalovirus) [SEQ ID NO: 33] | 25.0 | 3/12 |  |
| SVRLPYMYK (listed as Human cytomegalovirus) [SEQ ID NO: 75] | 25.0 | 4/16 |  |
| SVSSAPLNK (listed as Human cytomegalovirus) [SEQ ID NO: 79] | 7.1 | 1/14 |  |
| TILDKILNV (listed as Human cytomegalovirus) [SEQ ID NO: 11] | 20.0 | 4/20 |  |
| TLINGVWVV (listed as Human cytomegalovirus) [SEQ ID NO: 12] |  | 2/11 |  |
| TPLLKRLPL (listed as Human cytomegalovirus) [SEQ ID NO: 82] | 28.6 | 4/14 |  |
| TSETHFGNY (listed as Human cytomegalovirus) [SEQ ID NO: 59] | 20.0 | 3/15 |  |
| VMKFKETSF (listed as Human cytomegalovirus) [SEQ ID NO: 81] |  | 5/13 |  |
| VPAAVYTTV (listed as Human cytomegalovirus) [SEQ ID NO: 93] | 33.3 | 5/15 |  |
| VTDPEHLMM (listed as Human cytomegalovirus) [SEQ ID NO: 64] | 14.3 | 2/14 |  |
| VTDYGNVAFKY (listed as Human cytomegalovirus) [SEQ ID NO: 61] | 18.8 | 3/16 |  |
| YSDRRDHVWSY (listed as Human cytomegalovirus) [SEQ ID NO: 66] | 6.3 | 1/16 |  |
| YTSRGALYLY (listed as Human cytomegalovirus) [SEQ ID NO: 58] | 21.4 | 3/14 |  |

From patent US20220332764A1, “T CELL EPITOPES OF HCMV AND USES OF THEREOF” (EBERHARD KARLS UNIVERSITÄT TÜBINGEN, priority 2019, published 2022)
